Reference: US8952024B2, “Herbicidal pyrimidone derivatives” (E I du Pont de Nemours and Company, priority 2009, dated 2015)

Experiments:
Assay type in all cases: in vivo
[1] = system: barnyardgrass (Echinochloa crus-galli); test: Test A pre-/postemergence plant response
In short: (§1)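 Injury was scored visually after roughly ten days against untreated controls, 0 = no effect, 100 = complete control. Test chemicals in a surfactant-containing non-phytotoxic solvent were sprayed either onto soil preemergence or onto one- to two-leaf, 2–10 cm plants postemergence.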

[2] = system: corn (Zea mays); test: Test A pre-/postemergence plant response
In short: as §1

[3] = system: giant foxtail (Setaria faberii); test: Test A pre-/postemergence plant response
In short: as §1

[4] = system: large crabgrass (Digitaria sanguinalis); test: Test A pre-/postemergence plant response
In short: as §1

[5] = system: morningglory (Ipomoea spp.); test: Test A pre-/postemergence plant response
In short: as §1

[6] = system: pigweed (Amaranthus retroflexus); test: Test A pre-/postemergence plant response
In short: as §1

[7] = system: velvetleaf (Abutilon theophrasti); test: Test A pre-/postemergence plant response
In short: as §1

[8] = system: wheat (Triticum aestivum); test: Test A pre-/postemergence plant response
In short: as §1

[9] = system: canarygrass (Phalaris minor); test: Test B postemergence plant response
In short: (§2)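 Visual ratings from 0 (no effect) to 100 (complete control), made against controls 13–15 days after treatment, kept in a greenhouse. Compounds were applied postemergence to potted plants at the 1- to 4-leaf stage (2–18 cm).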

[10] = system: chickweed (Stellaria media); test: Test B postemergence plant response
In short: as §2

[11] = system: windgrass (Apera spica-venti); test: Test B postemergence plant response
In short: as §2

[12] = system: winter barley (Hordeum vulgare); test: Test B postemergence plant response
In short: as §2

[13] = Postemergence, 125 g ai/ha, visual injury, 0 to 100 scale (0 no effect, 100 complete control), approx. ten days
[14] = Postemergence, 500 g ai/ha, 0 to 100 scale, 0 = no effect, 100 = complete control, approx. ten days
[15] = Preemergence, 125 g ai/ha, 0 to 100 scale, 0 = no effect, 100 = complete control
[16] = Preemergence, 500 g ai/ha, visual injury, 0 to 100 scale (0 no effect, 100 complete control), approx. ten days
[17] = Postemergence, 31 g ai/ha, scale 0 to 100 (0 no effect, 100 complete control)
[18] = Postemergence, 62 g ai/ha, scale 0 (no effect) to 100 (complete control), 13 to 15 days
[19] = Postemergence, 125 g ai/ha, visual rating after 13 to 15 days, scale 0 (no effect) to 100 (complete control)
[20] = Postemergence, 250 g ai/ha, scale 0 to 100
[21] = 31 g ai/ha, postemergence, scale 0 to 100, 0 is no effect, 100 is complete control
[22] = Postemergence, 250 g ai/ha, scale 0 to 100 (0 no effect, 100 complete control)

SMILES: Cc1cccc(Cl)c1-n1c(-c2ccccc2)ncc(C(=O)C2=C(O)CCCC2=O)c1=O [Compound 46]
- Barnyardgrass plant response rating [1, 13]: 80
- Plant response rating, Barnyardgrass [1, 14]: 90
- Plant response rating, Barnyardgrass [1, 15]: 0
- Plant response rating, Barnyardgrass [1, 16]: 50
- Corn plant response rating [2, 13]: 0
- Plant response rating, Corn [2, 14]: 20
- Plant response rating, Corn [2, 15]: 0
- Plant response rating, Corn [2, 16]: 0
- Foxtail, Giant plant response rating [3, 13]: 60
- Plant response rating, Foxtail, Giant [3, 14]: 90
- Plant response rating, Foxtail, Giant [3, 15]: 0
- Plant response rating, Foxtail, Giant [3, 16]: 60
- Crabgrass, Large plant response rating [4, 13]: 70
- Plant response rating, Crabgrass, Large [4, 14]: 90
- Plant response rating, Crabgrass, Large [4, 15]: 30
- Plant response rating, Crabgrass, Large [4, 16]: 80
- Morningglory plant response rating [5, 13]: 60
- Plant response rating, Morningglory [5, 14]: 70
- Plant response rating, Morningglory [5, 15]: 10
- Plant response rating, Morningglory [5, 16]: 70
- Pigweed plant response rating [6, 13]: 80
- Plant response rating, Pigweed [6, 14]: 100
- Plant response rating, Pigweed [6, 15]: 60
- Plant response rating, Pigweed [6, 16]: 90
- Velvetleaf plant response rating [7, 13]: 100
- Plant response rating, Velvetleaf [7, 14]: 100
- Plant response rating, Velvetleaf [7, 15]: 40
- Plant response rating, Velvetleaf [7, 16]: 70
- Wheat plant response rating [8, 13]: 0
- Plant response rating, Wheat [8, 14]: 0
- Plant response rating, Wheat [8, 15]: 0
- Plant response rating, Wheat [8, 16]: 20
- Plant response rating, Canarygrass [9, 17]: 0
- Plant response rating, Canarygrass [9, 18]: 0
- Plant response rating, Canarygrass [9, 19]: 0
- Canarygrass plant response rating [9, 20]: 0
- Plant response rating, Chickweed [10, 17]: 80
- Plant response rating, Chickweed [10, 18]: 95
- Plant response rating, Chickweed [10, 19]: 95
- Chickweed plant response rating [10, 20]: 98
- Plant response rating, Windgrass [11, 18]: 10
- Plant response rating, Windgrass [11, 19]: 15
- Plant response rating, Barley [12, 17]: 0
- Plant response rating, Barley [12, 18]: 0
- Plant response rating, Barley [12, 19]: 0
- Barley plant response rating [12, 20]: 0

SMILES: Cc1cc(-n2c(-c3ccccc3)ncc(C(=O)C3=C(O)CCCC3=O)c2=O)ccc1F [Compound 53]
- Barnyardgrass plant response rating [1, 13]: 90
- Plant response rating, Barnyardgrass [1, 14]: 100
- Plant response rating, Barnyardgrass [1, 15]: 40
- Plant response rating, Barnyardgrass [1, 16]: 100
- Corn plant response rating [2, 13]: 0
- Plant response rating, Corn [2, 14]: 80
- Plant response rating, Corn [2, 15]: 0
- Plant response rating, Corn [2, 16]: 0
- Foxtail, Giant plant response rating [3, 13]: 90
- Plant response rating, Foxtail, Giant [3, 14]: 90
- Plant response rating, Foxtail, Giant [3, 15]: 70
- Plant response rating, Foxtail, Giant [3, 16]: 100
- Crabgrass, Large plant response rating [4, 13]: 90
- Plant response rating, Crabgrass, Large [4, 14]: 100
- Plant response rating, Crabgrass, Large [4, 15]: 90
- Plant response rating, Crabgrass, Large [4, 16]: 100
- Morningglory plant response rating [5, 13]: 100
- Plant response rating, Morningglory [5, 14]: 100
- Plant response rating, Morningglory [5, 15]: 80
- Plant response rating, Morningglory [5, 16]: 90
- Pigweed plant response rating [6, 13]: 100
- Plant response rating, Pigweed [6, 14]: 100
- Plant response rating, Pigweed [6, 15]: 90
- Plant response rating, Pigweed [6, 16]: 100
- Velvetleaf plant response rating [7, 13]: 100
- Plant response rating, Velvetleaf [7, 14]: 100
- Plant response rating, Velvetleaf [7, 15]: 80
- Plant response rating, Velvetleaf [7, 16]: 90
- Wheat plant response rating [8, 13]: 30
- Plant response rating, Wheat [8, 14]: 50
- Plant response rating, Wheat [8, 15]: 0
- Plant response rating, Wheat [8, 16]: 10
- Plant response rating, Canarygrass [9, 21]: 40
- Plant response rating, Canarygrass [9, 18]: 80
- Plant response rating, Canarygrass [9, 19]: 90
- Plant response rating, Canarygrass [9, 22]: 90
- Plant response rating, Chickweed [10, 21]: 85
- Plant response rating, Chickweed [10, 18]: 98
- Plant response rating, Chickweed [10, 19]: 98
- Plant response rating, Chickweed [10, 22]: 100
- Plant response rating, Windgrass [11, 21]: 60
- Plant response rating, Windgrass [11, 18]: 80
- Plant response rating, Windgrass [11, 19]: 85
- Plant response rating, Windgrass [11, 22]: 95
- Plant response rating, Barley [12, 21]: 0
- Plant response rating, Barley [12, 18]: 50
- Plant response rating, Barley [12, 19]: 70
- Plant response rating, Barley [12, 22]: 70
